Values of other authors as cited in EP0413839A1, “GHRH analogs” (The Administrators of The Tulane Educational Fund, priority 1989, dated 1991).
No end group written: not given here.

Conditions: percent of the potency of hGRF

Substance	potency of hGRF
hGRF(1-27)-NH₂ (YADAIFTNSYRKVLGQLSARKLLQDIM-NH2; UniProt P01286 32-58, looked up, fragment) [shortened hGRF fragment with amidated C-terminus]	1.12%
hGRF(1-23)-NH₂ (YADAIFTNSYRKVLGQLSARKLL-NH2; UniProt P01286 32-54, looked up, fragment) [shortened hGRF fragment with amidated C-terminus]	0.24%
hGRF(1-37)-NH₂ (YADAIFTNSYRKVLGQLSARKLLQDIMSRQQGESNQE-NH2; UniProt P01286 32-68, looked up, fragment) [fragment of human growth hormone releasing factor terminated with an amide group]	at least 50%
hGRF(1-29)OH	12.6%
